US11739074B2, “Ras inhibitors” (Revolution Medicines, Inc., priority 2019, dated 2023)
Read-outs that look alike come from different tables or passages of the source.

Key:
Format in all cases: cell-based
[1] = system: AsPC-1 (K-Ras G12D); assay: CellTiter-Glo cell viability assay, AsPC-1; conditions: Homo sapiens, ASPC1, 120 h
Outline: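 Test compounds were dispensed directly onto seeded cells, and on day 5 plates were brought to room temperature for about 30 minutes before CellTiter-Glo luminescence was read. Signals were expressed as percent of the mean DMSO control and fitted with a four-parameter logistic model.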

[2] = system: NCI-H358 (K-Ras G12C); assay: CellTiter-Glo cell viability assay, H358; conditions: Homo sapiens, NCI-H358, 120 h
Description: Determination of Cell Viability in RAS Mutant Cancer Cell Lines
Protocol: CellTiter-Glo® Cell Viability Assay
Note—The following protocol describes a procedure for monitoring cell viability of K-Ras mutant cancer cell lines in response to a compound of the invention. Other RAS isoforms may be employed, though the number of cells to be seeded will vary based on cell line used.
Test compounds (132.5 nL) were directly dispensed into the assay plates containing cells. […] On day 5, assay plates and their contents were equilibrated to room temperature for approximately 30 minutes. […] Luminescence was measured using the PerkinElmer Enspire. Data were normalized by the following: (Sample signal/Avg. DMSO)*100. The data were fit using a four-parameter logistic fit.

[3] = system: AsPC-1 (K-Ras G12D); assay: Potency assay: pERK in AsPC-1 cells; conditions: Homo sapiens
[4] = read-out: AsPC-1 Cell Viability IC50, AsPC-1, K-Ras G12D, 5-day treatment
[5] = read-out: H358 Cell Viability IC50, NCI-H358, K-Ras G12C, 5-day treatment
[6] = ASPC1, read-out: pERK EC50 (AsPC-1 KRAS G12D)
[7] = AsPC-1, K-Ras G12D, 5-day treatment, read-out: AsPC-1 Cell Viability IC50
[8] = NCI-H358, K-Ras G12C, 5-day treatment, read-out: H358 Cell Viability IC50
[9] = ASPC1, AsPC-1 cells, K-Ras G12D, read-out: pERK EC50 (AsPC-1 KRAS G12D)

Structure (SMILES)	IC50 [1, 4]	IC50 [2, 5]	EC50 [3, 6]	IC50 [1, 7]	IC50 [2, 8]	EC50 [3, 9]
CCn1c(-c2cccnc2[C@H](C)OC)c2c3cc(ccc31)-c1cc(O)cc(c1)C[C@H](NC(=O)[C@H](C(C)C)N(C)C(=O)CN(C)C(=O)[C@@H]1CN1CC1(C)COC1)C(=O)N1CCC[C@H](N1)C(=O)OCC(C)(C)C2 (stereo partly shown) [Compound 280]	1000 to 10000 nM	< 10 nM	< 5 µM	–	–	–
CCn1c(-c2cccnc2[C@H](C)OC)c2c3cc(ccc31)-c1csc(n1)C[C@H](NC(=O)[C@H](C(C)C)N(C)C(=O)N1CCN(C(=O)[C@H]3CN3)CC1)C(=O)N1CCC[C@H](N1)C(=O)OCC(C)(C)C2 [Compound 169]	–	–	–	100 to 1000 nM	10 to 100 nM	< 5 µM
CCn1c(-c2cccnc2[C@H](C)OC)c2c3cc(ccc31)-c1cc(O)cc(c1)C[C@H](NC(=O)[C@H](C(C)C)N(C)C(=O)CN(C)C(=O)[C@H]1N[C@@H]1C1CC1)C(=O)N1CCC[C@H](N1)C(=O)OCC(C)(C)C2 [Compound 136]	–	< 10 nM	< 5 µM	–	–	–
CCn1c(-c2cc(N3CCN(C)CC3)cnc2[C@H](C)OC)c2c3cc(ccc31)-c1cc(O)cc(c1)C[C@H](NC(=O)[C@H](C1CCCC1)N(C)C(=O)CN(C)C(=O)[C@H]1CN1)C(=O)N1CCC[C@H](N1)C(=O)OCC(C)(C)C2 [Example 209, (2R)—N-(2-(((1S)-1-cyclopentyl-2-(((6^3S,4S)-1^1-ethyl-2^5-hydroxy-1^2-(2-((S)-1-methoxyethyl)-5-(4-methylpiperazin-1-yl)pyridin-3-yl)-10,10-dimethyl-5,7-dioxo-6^1,6^2,6^3,6^4,6^5,6^6-hexahydro-1^1H-8-oxa-1(5,3)-indola-6(1,3)-pyridazina-2(1,3)-benzenacycloundecaphane-4-yl)amino)-2-oxoethyl)(methyl)amino)-2-oxoethyl)-N-methylaziridine-2-carboxamide]	< 10 nM	< 10 nM	< 5 µM	–	–	–
CCn1c(-c2cccnc2[C@H](C)OC)c2c3cc(ccc31)-c1cc(O)cc(c1)C[C@H](NC(=O)[C@H](C(C)C)N(C)C(=O)CN(C)C(=O)[C@@H]1N[C@H]1COC)C(=O)N1CCC[C@H](N1)C(=O)OCC(C)(C)C2 [Compound 85]	1000 to 10000 nM	10 to 100 nM	< 5 µM	–	–	–
CCn1c(-c2cccnc2[C@H](C)OC)c2c3cc(ccc31)-c1cc(O)cc(c1)C[C@H](NC(=O)[C@H](C(C)C)N(C)C(=O)[C@H](C)N(C)C(=O)[C@H]1CN1)C(=O)N1CCC[C@H](N1)C(=O)OCC(C)(C)C2 [Compound 102]	100 to 1000 nM	10 to 100 nM	< 5 µM	–	–	–
CCn1c(-c2cccnc2[C@H](C)OC)c2c3cc(ccc31)-c1cc(O)cc(c1)C[C@H](NC(=O)[C@H](C(C)C)N(C)C(=O)[C@@]1(F)CCN(C(=O)[C@H]3CN3)C1)C(=O)N1CCC[C@H](N1)C(=O)OCC(C)(C)C2 [Compound 171]	–	–	–	100 to 1000 nM	< 10 nM	< 5 µM
CCn1c(-c2cnccc2COC)c2c3cc(ccc31)-c1cc(O)cc(c1)C[C@H](NC(=O)[C@H](C(C)C)N(C)C(=O)C1CCN(C(=O)[C@@H]3CN3)CC1)C(=O)N1CCC[C@H](N1)C(=O)OCC(C)(C)C2 [Compound 4]	–	–	–	> 10000 nM	100 to 1000 nM	–
CCn1c(-c2cnccc2COC)c2c3cc(ccc31)-c1cccc(c1)C[C@H](NC(=O)[C@H](C(C)C)N(C)C(=O)CCN=C=NCCc1cccs1)C(=O)N1CCC[C@H](N1)C(=O)OCC(C)(C)C2 [68 A and B]	–	–	–	1000 to 10000 nM	1000 to 10000 nM	–
CCn1c(-c2cccnc2[C@H](C)OC)c2c3cc(ccc31)-c1cc(O)cc(c1)C[C@H](NC(=O)[C@H](C(C)C)N(C)C(=O)[C@@]1(C)CCCN1C(=O)[C@@H]1CN1)C(=O)N1CCC[C@H](N1)C(=O)OCC(C)(C)C2 [Compound 241]	–	–	–	100 to 1000 nM	< 10 nM	–
CCn1c(-c2cnccc2COC)c2c3cc(ccc31)-c1cc(O)cc(c1)C[C@H](NC(=O)[C@H](C(C)C)N(C)C(=O)N1CCCN(C(=O)[C@@H]3CN3)CC1)C(=O)N1CCC[C@H](N1)C(=O)OCC(C)(C)C2 [Compound 45]	–	–	–	> 10000 nM	100 to 1000 nM	–
CCn1c(-c2cnccc2COC)c2c3cc(ccc31)-c1cc(O)cc(c1)C[C@H](NC(=O)[C@H](C(C)C)N(C)C(=O)C1CCN(C(=O)[C@H]3CN3)CC1)C(=O)N1CCC[C@H](N1)C(=O)OCC(C)(C)C2 [Compound 3]	–	–	–	> 10000 nM	100 to 1000 nM	–
CCn1c(-c2cnccc2COC)c2c3cc(ccc31)-c1cccc(c1)C[C@H](NC(=O)[C@H](C(C)C)N(C)C(=O)CCN=C=NCc1ccc(OC)cc1)C(=O)N1CCC[C@H](N1)C(=O)OCC(C)(C)C2 (atropisomer, axis not shown) [18 A and B]	–	–	–	1000 to 10000 nM	1000 to 10000 nM	–
CCn1c(-c2cnccc2COC)c2c3cc(ccc31)-c1cccc(c1)C[C@H](NC(=O)[C@H](C(C)C)N(C)C(=O)CCN=C=NCc1ccccc1)C(=O)N1CCC[C@H](N1)C(=O)OCC(C)(C)C2 [19 A and B]	–	–	–	100 to 1000 nM	1000 to 10000 nM	–
CCn1c(-c2cnccc2COC)c2c3cc(ccc31)-c1cccc(c1)C[C@H](NC(=O)[C@H](C(C)C)N(C)C(=O)CCN=C=Nc1ccccc1OC)C(=O)N1CCC[C@H](N1)C(=O)OCC(C)(C)C2 [20 A and B]	–	–	–	> 10000 nM	1000 to 10000 nM	–
CCn1c(-c2cccnc2[C@H](C)OC)c2c3cc(ccc31)-c1cc(O)cc(c1)C[C@H](NC(=O)[C@H](C(C)C)N(C)C(=O)CN(C)C(=O)[C@H]1CN1CCOC)C(=O)N1CCC[C@H](N1)C(=O)OCC(C)(C)C2 (stereo partly shown) [Compound 159]	100 to 1000 nM	< 10 nM	–	–	–	–
CCn1c(-c2cnccc2COC)c2c3cc(ccc31)-c1cc(O)cc(c1)C[C@H](NC(=O)[C@H](C(C)C)N(C)C(=O)C1CN(C(=O)[C@@H]3CN3)C1)C(=O)N1CCC[C@H](N1)C(=O)OCC(C)(C)C2 [Compound 6]	–	–	–	> 10000 nM	100 to 1000 nM	–
CCn1c(-c2cnccc2COC)c2c3cc(ccc31)-c1cccc(c1)C[C@H](NC(=O)[C@H](C(C)C)N(C)C(=O)CCN=C=NCCCSC)C(=O)N1CCC[C@H](N1)C(=O)OCC(C)(C)C2 [16 A and B]	–	–	–	1000 to 10000 nM	1000 to 10000 nM	–
CCn1c(-c2cnccc2COC)c2c3cc(ccc31)-c1cc(O)cc(c1)C[C@H](NC(=O)[C@H](C(C)C)N(C)C(=O)c1ccc(NC(=O)[C@@H]3CN3)cn1)C(=O)N1CCC[C@H](N1)C(=O)OCC(C)(C)C2 [Compound 46]	–	–	–	> 10000 nM	100 to 1000 nM	–
CCn1c(-c2cnccc2COC)c2c3cc(ccc31)-c1cc(O)cc(c1)C[C@H](NC(=O)[C@H](C(C)C)N(C)C(=O)N1CCCN(C(=O)[C@H]3CN3)CC1)C(=O)N1CCC[C@H](N1)C(=O)OCC(C)(C)C2 [Compound 44]	–	–	–	1000 to 10000 nM	< 10 nM	–
CCn1c(-c2cnccc2COC)c2c3cc(ccc31)-c1cc(O)cc(c1)C[C@H](NC(=O)[C@H](C(C)C)N(C)C(=O)[C@H]1CCN(C(=O)[C@@H]3CN3)C1)C(=O)N1CCC[C@H](N1)C(=O)OCC(C)(C)C2 [Compound 2]	–	–	–	> 10000 nM	10 to 100 nM	–
CCn1c(-c2cnccc2COC)c2c3cc(ccc31)-c1cc(O)cc(c1)C[C@H](NC(=O)[C@H](C(C)C)N(C)C(=O)[C@H]1CCN(C(=O)[C@@H]3CO3)C1)C(=O)N1CCC[C@H](N1)C(=O)OCC(C)(C)C2 [Example 31, (3S)—N-((2S)-1-(((6^3S,4S)-1^1-ethyl-2^5-hydroxy-1^2-(4-(methoxymethyl)pyridin-3-yl)-10,10-dimethyl-5,7-dioxo-6^1,6^2,6^3,6^4,6^5,6^6-hexahydro-1^1H-8-oxa-1(5,3)-indola-6(1,3)-pyridazina-2(1,3)-benzenacycloundecaphane-4-yl)amino)-3-methyl-1-oxobutan-2-yl)-N-methyl-1-((S)-oxirane-2-carbonyl)pyrrolidine-3-carboxamide]	–	–	–	> 10000 nM	1000 to 10000 nM	–
CCn1c(-c2cnccc2COC)c2c3cc(ccc31)-c1cccc(c1)C[C@H](NC(=O)[C@H](C(C)C)N(C)C(=O)CCN=C=Nc1ccc(OC)cc1OC)C(=O)N1CCC[C@H](N1)C(=O)OCC(C)(C)C2 [24 A and B]	–	–	–	> 10000 nM	1000 to 10000 nM	–
CCn1c(-c2cnccc2COC)c2c3cc(ccc31)-c1cccc(c1)C[C@H](NC(=O)[C@H](C(C)C)N(C)C(=O)CCN=C=Nc1ccc(N(C)C)cc1)C(=O)N1CCC[C@H](N1)C(=O)OCC(C)(C)C2 [Compound 66]	–	–	–	> 10000 nM	1000 to 10000 nM	–
CCn1c(-c2cnccc2COC)c2c3cc(ccc31)-c1cccc(c1)C[C@H](NC(=O)[C@H](C(C)C)N(C)C(=O)CCN=C=Nc1ccc(N3CCOCC3)cc1)C(=O)N1CCC[C@H](N1)C(=O)OCC(C)(C)C2 [Compound 67]	–	–	–	> 10000 nM	> 10000 nM	–
CCn1c(-c2cnccc2COC)c2c3cc(ccc31)-c1cc(O)cc(c1)C[C@H](NC(=O)[C@H](C(C)C)N(C)C(=O)CCN(C)C(=O)[C@H]1CN1)C(=O)N1CCC[C@H](N1)C(=O)OCC(C)(C)C2 (single isomer, unassigned) [Compound 41]	–	–	–	> 10000 nM	10 to 100 nM	–
